These results are taken from patent US20220033397A1, “PHARMACEUTICAL COMPOUNDS AND THEIR USE AS INHIBITORS OF UBIQUITIN SPECIFIC PROTEASE 19 (USP19)” (ALMAC DISCOVERY LIMITED, priority 2018, published 2022).

The target in this assay is T1, Full-length USP19 (Homo sapiens, UniProt O94966).
T1 construct: Full-length USP19 was purchased from Boston Biochem (E-576); purchased Boston Biochem E-576
T1 sequence (O94966 1-1318): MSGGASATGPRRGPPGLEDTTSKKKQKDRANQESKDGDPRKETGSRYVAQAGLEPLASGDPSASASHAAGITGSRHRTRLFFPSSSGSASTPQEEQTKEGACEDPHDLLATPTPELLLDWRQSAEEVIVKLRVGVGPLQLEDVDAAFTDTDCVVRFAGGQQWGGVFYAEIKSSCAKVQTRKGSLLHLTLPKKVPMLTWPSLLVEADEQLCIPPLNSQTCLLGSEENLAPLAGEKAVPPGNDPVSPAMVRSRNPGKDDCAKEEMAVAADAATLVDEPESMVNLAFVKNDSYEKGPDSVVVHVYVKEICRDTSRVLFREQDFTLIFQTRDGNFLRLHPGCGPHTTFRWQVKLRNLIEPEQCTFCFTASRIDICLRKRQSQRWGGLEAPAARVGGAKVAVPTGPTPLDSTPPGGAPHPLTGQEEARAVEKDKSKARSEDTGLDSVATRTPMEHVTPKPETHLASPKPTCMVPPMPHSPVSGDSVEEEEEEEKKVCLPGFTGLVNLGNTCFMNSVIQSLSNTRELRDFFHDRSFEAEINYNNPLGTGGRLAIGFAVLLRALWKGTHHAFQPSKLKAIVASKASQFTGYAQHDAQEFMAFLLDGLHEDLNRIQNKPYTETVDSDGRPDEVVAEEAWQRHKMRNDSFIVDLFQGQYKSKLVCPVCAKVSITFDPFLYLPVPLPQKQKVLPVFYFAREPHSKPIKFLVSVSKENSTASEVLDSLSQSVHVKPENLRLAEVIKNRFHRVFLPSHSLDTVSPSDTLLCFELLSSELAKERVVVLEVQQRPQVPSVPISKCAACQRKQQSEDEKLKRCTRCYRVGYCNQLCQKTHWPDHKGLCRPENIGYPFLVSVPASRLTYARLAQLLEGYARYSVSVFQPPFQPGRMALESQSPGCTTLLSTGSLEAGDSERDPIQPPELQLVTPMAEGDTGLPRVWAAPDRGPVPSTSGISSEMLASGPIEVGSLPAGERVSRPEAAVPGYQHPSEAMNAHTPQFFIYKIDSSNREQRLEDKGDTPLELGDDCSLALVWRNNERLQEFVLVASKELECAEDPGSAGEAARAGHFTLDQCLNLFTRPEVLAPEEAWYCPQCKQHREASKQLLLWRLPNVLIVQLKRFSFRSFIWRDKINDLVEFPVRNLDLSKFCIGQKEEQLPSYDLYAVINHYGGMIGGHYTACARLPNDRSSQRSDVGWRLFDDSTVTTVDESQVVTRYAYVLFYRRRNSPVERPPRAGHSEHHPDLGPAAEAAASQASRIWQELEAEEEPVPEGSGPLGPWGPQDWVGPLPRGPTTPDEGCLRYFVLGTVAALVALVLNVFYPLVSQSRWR
Put plainly: USP19 fluorescence polarisation (FP) homogeneous assay with Ubiquitin-Lys-TAMRA substrate. The following applies: 2.5 nM USP19, 30 min pre-incubation, average of at least two duplicate experiments. In kind it is biochemical. The method in brief: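 Full-length USP19 preincubated 30 min at RT with inhibitor (200 μM to 2 μM series, 8–18 points) before adding 500 nM Ubiquitin-Lys-TAMRA substrate.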

Turning to `CC1CN(CC2(O)CCN(C(=O)[C@H](C)CC(F)(F)F)CC23CCCC3)C(=O)CO1` (stereo partly drawn) [Example 97, 4-((10-Hydroxy-7-((R)-4,4,4-trifluoro-2-methylbutanoyl)-7-azaspiro[4.5]decan-10-yl)methyl)-6-methylmorpholin-3-one], the IC50 was 50 to 250 µM.

Consider `O=C(NCC1CC(F)(F)C1)N1CC[C@@](O)(Cn2cnc(-c3ccccc3)cc2=O)C2(CCCC2)C1` [Example 307, (S)—N-((3,3-Difluorocyclobutyl)methyl)-10-hydroxy-10-((6-oxo-4-phenylpyrimidin-1(6H)-yl)methyl)-7-azaspiro[4.5]decane-7-carboxamide], for which the half-inhibitory concentration (IC50) is less than 0.5 µM.

`O=C(NCc1ccccc1)N1CCC(O)(Cn2cnc(-c3cccnc3)cc2=O)C2(CCCC2)C1` (stereo not shown) [Example 200, N-Benzyl-10-hydroxy-10-((6-oxo-4-(pyridin-3-yl)pyrimidin-1(6H)-yl)methyl)-7-azaspiro[4.5]decane-7-carboxamide]: the IC50 is 5 to 50 µM.

Regarding `CNc1cc(=O)n(C[C@]2(O)CCN(C(=O)N3CCNC[C@H]3c3ccccc3)CC23CCCC3)cn1` [Example 319, 3-(((S)-10-Hydroxy-7-((R)-2-phenylpiperazine-1-carbonyl)-7-azaspiro[4.5]decan-10-yl)methyl)-6-(methylamino)pyrimidin-4(3H)-one], the IC50 was less than 0.5 µM.

On to `O=C(NCc1cccc(F)c1F)N1CC[C@@](O)(Cn2cnc(-c3ccccc3)cc2=O)C2(CCCC2)C1` [Example 301, (S)—N-(2,3-Difluorobenzyl)-10-hydroxy-10-((6-oxo-4-phenylpyrimidin-1(6H)-yl)methyl)-7-azaspiro[4.5]decane-7-carboxamide], for which the IC50 was less than 0.5 µM.

As to `CSc1ncc2c(=O)n(CC3(O)CCN(C(=O)[C@H](C)CC(F)(F)F)CC34CCCC4)cnc2n1` (stereo partly drawn) [Example 161, 3-((10-Hydroxy-7-((R)-4,4,4-trifluoro-2-methylbutanoyl)-7-azaspiro[4.5]decan-10-yl)methyl)-7-(methylthio)pyrimido[4,5-d]pyrimidin-4(3H)-one], the IC50 lay in the range of 0.5 to 5 µM.

With `C[C@H](CC1CCCCC1)C(=O)N1CCC(O)(CN2Cc3ccccc3C2=O)C(C)(C)C1` (stereo partly drawn) [Example 27, 2-((1-((R)-3-Cyclohexyl-2-methylpropanoyl)-4-hydroxy-3,3-dimethylpiperidin-4-yl)methyl)isoindolin-1-one], the half-inhibitory concentration (IC50) was 5 to 50 µM.

As for `O=C(N1CCC(O)(Cn2cnc3c(cnn3Cc3ccccc3)c2=O)C2(CCCC2)C1)N1CCNC[C@H]1c1ccccc1` (stereo partly drawn) [Example 172, 1-Benzyl-5-((10-hydroxy-7-((R)-2-phenylpiperazine-1-carbonyl)-7-azaspiro[4.5]decan-10-yl)methyl)-1,5-dihydro-4H-pyrazolo[3,4-d]pyrimidin-4-one], the IC50 is less than 0.5 µM.

For `CC(=O)N1CCN(CC2(O)CCN(C(=O)[C@H](C)CC3CCCCC3)CC23CCCC3)C(=O)C1` (stereo partly drawn) [Example 48, 4-Acetyl-1-((7-((R)-3-cyclohexyl-2-methylpropanoyl)-10-hydroxy-7-azaspiro[4.5]decan-10-yl)methyl)piperazin-2-one], the half-inhibitory concentration (IC50) is less than 0.5 µM.

As to `CCCn1c(=O)n(CC2(O)CCN(C(=O)[C@H](C)CC3CCCCC3)CC23CCCC3)c2ccccc21` (stereo partly drawn) [Example 33, 1-((7-((R)-3-Cyclohexyl-2-methylpropanoyl)-10-hydroxy-7-azaspiro[4.5]decan-10-yl)methyl)-3-propyl-1,3-dihydro-2H-benzo[d]imidazol-2-one], the IC50 lay in the range of 5 to 50 µM.

On to `C[C@H](CC(F)(F)F)C(=O)N1CCC(O)(Cn2cnc3sccc3c2=O)C2(CCCC2)C1` (stereo partly drawn) [Example 123, 3-((10-Hydroxy-7-((R)-4,4,4-trifluoro-2-methylbutanoyl)-7-azaspiro[4.5]decan-10-yl)methyl)thieno[2,3-d]pyrimidin-4(3H)-one], for which the 50% inhibitory concentration (IC50) was 50 to 250 µM.

On to `C[C@H](CC1CCCCC1)C(=O)N1CCC(O)(Cn2cc(-n3cccn3)ncc2=O)C(C)(C)C1` (stereo partly drawn) [Example 18, 1-((1-((R)-3-Cyclohexyl-2-methylpropanoyl)-4-hydroxy-3,3-dimethylpiperidin-4-yl)methyl)-5-(1H-pyrazol-1-yl)pyrazin-2(1H)-one], for which the IC50 was in the range of 0.5 to 5 µM.

Turning to `O=C(N1CCC(O)(Cn2cnc3cc(F)c(F)cc3c2=O)C2(CCCC2)C1)N1CCOC[C@H]1c1ccccc1` (stereo partly drawn) [Example 165, 6,7-Difluoro-3-((10-hydroxy-7-((R)-3-phenylmorpholine-4-carbonyl)-7-azaspiro[4.5]decan-10-yl)methyl)quinazolin-4(3H)-one], the IC50 was less than 0.5 µM.

For the compound `O=C(N1CC[C@@](O)(Cn2cnc(-c3ccccc3F)cc2=O)C2(CCCC2)C1)N1CCNC[C@H]1c1cc(F)ccc1F` [Example 387, 3-(((S)-7-((R)-2-(2,5-Difluorophenyl)piper-azine-1-carbonyl)-10-hydroxy-7-azaspiro[4.5]decan-10-yl)methyl)-6-(2-fluorophenyl)pyrimi-din-4(3H)-one], the IC50 is less than 0.5 µM.

Consider `C[C@H](CC1CCCCC1)C(=O)N1CCC(O)(Cn2cc(S(C)(=O)=O)c(Cl)cc2=O)C2(CCCC2)C1` (stereo partly drawn) [Example 77, 4-Chloro-1-((7-((R)-3-cyclohexyl-2-methylpropanoyl)-10-hydroxy-7-azaspiro[4.5]decan-10-yl)methyl)-5-(methylsulfonyl)pyridin-2(1H)-one], for which the IC50 is less than 0.5 µM.

As for `O=C(N1CC[C@@](O)(Cn2cnc(-c3ccccc3)cc2=O)C2(CCCC2)C1)N1CCNCC1c1ccc(C(F)(F)F)cc1` (stereo partly drawn) [Example 336, 3-(((10S)-10-Hydroxy-7-(2-(4-(trifluoromethyl)phenyl)piperazine-1-carbonyl)-7-azaspiro[4.5]decan-10-yl)methyl)-6-phenylpyrimidin-4(3H)-one], the IC50 is less than 0.5 µM.

As to `CN(C)c1cc(=O)n(C[C@]2(O)CCN(C(=O)N3CCNC[C@H]3c3ccccc3)CC23CCCC3)cn1` [Example 318, 6-(Dimethylamino)-3-(((S)-10-hydroxy-7-((R)-2-phenylpiperazine-1-carbonyl)-7-azaspiro[4.5]decan-10-yl)methyl)pyrimidin-4(3H)-one], the 50% inhibitory concentration (IC50) is less than 0.5 µM.

For `CN(Cc1cccc(C#N)c1)C(=O)N1CCC(O)(Cn2cnc(-c3ccccc3)cc2=O)C2(CCCC2)C1` (stereo not shown) [Example 251, N-(3-Cyanobenzyl)-10-hydroxy-N-methyl-10-((6-oxo-4-phenylpyrimidin-1(6H)-yl)methyl)-7-azaspiro[4.5]decane-7-carboxamide], the IC50 lay in the range of 0.5 to 5 µM.

Take `O=C(N1CC[C@@](O)(Cn2cnc(-c3ccccc3OC3CC3)cc2=O)C2(CCCC2)C1)N1CCNC[C@H]1c1ccccc1` [Example 365, 6-(2-Cyclo-propoxyphenyl)-3-(((S)-10-hydroxy-7-((R)-2-phenylpipera-zine-1-carbonyl)-7-azaspiro[4.5]decan-10-yl)methyl)pyrimi-din-4(3H)-one]: the IC50 is less than 0.5 µM.

As to `O=C(N1CC[C@@](O)(Cn2cnc(N3CC4CC4C3)cc2=O)C2(CCCC2)C1)N1CCNC[C@H]1c1ccccc1` (stereo partly drawn) [Example 352, 6-(3-Aza-bicyclo[3.1.0]hexan-3-yl)-3-(((S)-10-hydroxy-7-((R)-2-phenylpiperazine-1-carbonyl)-7-aza-spiro[4.5]decan-10-yl)methyl)pyrimidin-4(3H)-one], the IC50 was less than 0.5 µM.

For `CN(Cc1ccco1)C(=O)N1CCC(O)(Cn2cnc(-c3ccccc3)cc2=O)C2(CCCC2)C1` (stereo not shown) [Example 242, N-(Furan-2-ylmethyl)-10-hydroxy-N-methyl-10-((6-oxo-4-phenylpyrimidin-1(6H)-yl)methyl)-7-azaspiro[4.5]decane-7-carboxamide], the IC50 lay within 50 to 250 µM.

Regarding `CN(CC1CC1)C(=O)N1CC[C@@](O)(Cn2cnc(-c3ccccc3)cc2=O)C2(CCCC2)C1` [Example 313, (S)—N-(Cyclopropylmethyl)-10-hydroxy-N-methyl-10-((6-oxo-4-phenylpyrimidin-1(6H)-yl)methyl)-7-azaspiro[4.5]decane-7-carboxamide], the IC50 lay within 0.5 to 5 µM.
